Test results published in US9119857B2, “Small molecule activators of HsIV protease for development of novel antimicrobials” (priority 2013, dated 2015).

Biological target: T1, E. coli HslV peptidase (Escherichia coli, UniProt P0A7B8)
T1 construct: His tag (inferred from Ni-chelating purification and the pET20B+ vector); made in house; host or cells: E. coli BL21 (DE3), pET20B+ vector
Assay: biochemical
Conditions: recombinant E. coli HslV; substrate Z-Gly-Gly-Leu-AMC; in the absence of HslU; ED50 = concentration giving half maximal reaction velocity, from Vi/Vo plots; read-out: E. coli HslV activation (ED50 in μM)
Method: ED50 values were calculated from the plots of Vi/Vo versus compound concentration in which Vi and Vo were the velocities in the presence and absence of the compound^20.
The HslV activation assays were carried out with recombinant E. coli HslV and HslU. Recombinant HslV and HslU were expressed in E. coli BL21 (DE3) cells containing pET20B+ vector. Purification of both proteins was carried out using Ni-chelating and ion-exchange chromatography as reported elsewhere^4.
Plots of HslV peptidase activity as a function of compound concentrations were constructed (FIG. 4).

T1 sequence (P0A7B8 2-176): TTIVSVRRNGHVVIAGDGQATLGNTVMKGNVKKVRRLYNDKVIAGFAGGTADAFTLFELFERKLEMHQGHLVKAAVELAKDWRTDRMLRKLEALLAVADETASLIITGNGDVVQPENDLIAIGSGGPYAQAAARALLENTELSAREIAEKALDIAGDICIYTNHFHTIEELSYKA

O=c1c2ccccc2nc(-c2ccc([N+](=O)[O-])cc2)n1/N=C/c1c(O)ccc2ccccc12 [Compound 1, 3-[(E)-[(2-hydroxynaphthalen-1-yl)methylidene]amino]-2-(4-nitrophenyl)-3,4-dihydroquinazolin-4-one] gave an EC50 of 0.9 ± 0.25 µM.
Molecule O=C(N/N=C/c1cc(=O)c2ccccc2o1)c1ccccc1 [Compound 2, N″-[(1E)-(4-oxo-4H-chromen-2-yl)methylidene]benzohydrazide] has an EC50 of 1.3 ± 0.4 µM.
